2 compounds from patent US20230321100A1, “CD73 INHIBITOR AND APPLICATION THEREOF IN MEDICINE” (BETTA PHARMACEUTICALS CO., LTD, priority 2020, published 2023) can be followed below.

In data set [1] the target is T1, CD73 (Calu-6 cells) (Homo sapiens, UniProt P21589).
T1 construct: endogenous in cells; host or cells: Calu-6 cells
T1 sequence (P21589 27-549): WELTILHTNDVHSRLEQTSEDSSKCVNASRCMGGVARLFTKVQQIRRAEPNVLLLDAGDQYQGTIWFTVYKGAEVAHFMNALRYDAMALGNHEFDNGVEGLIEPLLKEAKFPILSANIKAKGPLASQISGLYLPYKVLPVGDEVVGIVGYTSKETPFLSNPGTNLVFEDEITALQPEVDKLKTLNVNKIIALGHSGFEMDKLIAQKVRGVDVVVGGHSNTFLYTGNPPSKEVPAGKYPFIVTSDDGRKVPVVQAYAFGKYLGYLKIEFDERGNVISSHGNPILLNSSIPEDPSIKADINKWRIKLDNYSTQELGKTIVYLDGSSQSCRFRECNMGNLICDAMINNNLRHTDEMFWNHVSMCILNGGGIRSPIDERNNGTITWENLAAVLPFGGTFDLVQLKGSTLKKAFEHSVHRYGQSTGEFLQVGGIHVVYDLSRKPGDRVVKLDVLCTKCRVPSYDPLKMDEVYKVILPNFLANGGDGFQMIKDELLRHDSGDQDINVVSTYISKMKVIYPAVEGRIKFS
Description: Enzymatic activity detection at the cellular level (Calu-6 cells, AMP substrate, Cell-titer Glo luminescence). Format: cell-based. The conditions noted are these: enzymatic IC50 at the Calu-6 cell level, 30 min pre-incubation, 120 min at 37° C. The procedure:
The Calu-6 cells were digested and re-suspended using TM buffer (25 mM Tris, 5 mM MgCl2, pH 7.5). Calu-6 cell suspension was seeded into 96 well cell culture plate, and the number of cells per well was 2.5×10^4, adding volume of 100 μL/well. Compound solution with gradient concentration was prepared by TM buffer, and 50 μL DMSO solution with different concentration was added into each pore cell. […] Pre-incubated in a shaker at 37° C. for 30 min. Each well was added with 50 μL 800 μM AMP solution. The shaker at 37° C. for 120 min was continued to incubate, then the 96-well plates were centrifuged and 50 μL supernatant was transferred to the new 96-well plates. […] The luminescence value was read by the multi-function enzymatic reader and converted into the inhibition percentage: Inhibition percentage=(1−reading/Max)*100. The “maximum value” was DMSO control. IC50 values were obtained by curve fitting with GraphPad Prism software.

Data set [2] is described as follows: Pharmacokinetic evaluation in mice after intragastric administration (plasma concentration by LC/MS/MS). To be noted: mouse, Balb/C female mice, single PO 10 mg/kg. In kind it is in vivo. The procedure: LC/MS/MS method was used to determine the plasma concentration of the embodiment compound at different time after intragastric administration in mice. Study the pharmacokinetic behavior of the compound in mice and evaluate its pharmacokinetic characteristics.
Methods: A single PK study (PO, 10 mg/kg) was performed on healthy Balb/C female mice (about 20 g) purchased from Beijing Vital River Laboratory Animal Technology Co., Ltd. About 1 hour before administration, a certain amount of drug was weighed and added with 5% DMSO and 95% hydroxypropyl betascyclodextrin (HP-β-CD) solution to form a colorless and clear solution. HP-β-CD solution is a 20% HP-β-CD solution prepared by adding HP-p-CD powder into 0.9% normal saline. Intragastric administration was performed at the dosage volume of 10 mL/kg, and blood was collected through the orbital venous plexus of mice. The blood collection time points were as follows: At 0.25, 0.5, 1.0, 2.0, 4.0, 7.0 and 24.0 hours before and after drug administration, 100 uL whole blood to K2EDTA anticoagulant tubes were taken at each time point, and the collected whole blood samples were centrifuged at 4000 rpm for 10 min. The plasma was separated and stored in the refrigerator at −80° C.
The above plasma samples were added to the pure acetonitrile solution containing the inner target for protein precipitation pre-treatment, centrifugation was performed at 10000 rpm for 10 min, and the supernatant was taken, mixed with water 1:1, and 10 μL to LC-MS/MS was used for detection. The linear range of compounds detected in plasma samples was 1-1000 ng/mL, and the data results were as follows:
The compound of the invention has good pharmacokinetic absorption and obvious pharmacokinetic advantages.

On to `O=c1[nH]cc(-c2cc([C@H]3C[C@@H]3c3ccccc3)c(Cl)nn2)c(=O)[nH]1` [Compound 57, 5-(6-chloro-5-((S,2S)-2-phenylcyclopropyl)pyridazin-3-yl)pyrimidine-2,4(1H,3H)-dione], for which inhibition in data set [1] was half-maximal at 1.3 nM (IC50). For the same compound, in data set [2], the AUC (as a rule, the area under the concentration-time curve, a measure of exposure) was 10700 ng·h/mL; the concentration peaked (Cmax) at 5410 ng/mL; the Tmax (usually the time from dosing to the highest level) amounted to 30 min.

`C=C[C@H]1C[C@@H]1c1cc(-c2c[nH]c(=O)[nH]c2=O)nnc1Cl` [Compound 13, 5-(6-chloro-5-((1S,2R)-2-vinylcyclopropyl)pyridazin-3-yl)pyrimidine-2,4(1H,3H)-dione]: the midpoint of inhibition in data set [1], the IC50, lay at 8.5 nM. Besides, in data set [2], the AUC was 16900 ng·h/mL, the highest level (Cmax) was 10400 ng/mL and the Tmax worked out at 30 min.
